Reference: patent US20240254087A1, “SELECTIVE, PARTIAL, AND ARRESTIN-BIASED 5-HT2A AGONISTS WITH UTILITY IN VARIOUS DISORDERS” (Saint Joseph's University, priority 2021, published 2024)
“Also recorded” adds a separate entry of the source.

Target: 5-HT5a (Homo sapiens, UniProt P47898)
Assay: Competitive radioligand binding (NIMH PDSP)
Conditions: not given

Sequence of 5-HT5a (P47898 whole entry, species assumed): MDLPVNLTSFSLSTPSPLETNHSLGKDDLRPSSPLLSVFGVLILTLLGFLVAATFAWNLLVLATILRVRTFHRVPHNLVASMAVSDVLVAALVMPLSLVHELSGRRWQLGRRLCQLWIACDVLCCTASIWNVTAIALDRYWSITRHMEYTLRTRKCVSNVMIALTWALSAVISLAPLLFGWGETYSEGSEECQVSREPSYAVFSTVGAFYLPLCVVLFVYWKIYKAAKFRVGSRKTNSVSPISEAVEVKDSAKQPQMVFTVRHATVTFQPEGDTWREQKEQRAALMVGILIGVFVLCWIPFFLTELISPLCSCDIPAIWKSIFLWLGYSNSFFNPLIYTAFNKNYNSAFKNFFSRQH

Compound | Ki | 5-HT5a pKi affinity (Ki ± SEM)
COc1cc([N+](=O)[O-])c(OC)cc1CCNCc1ccccc1I [25N-NBI (10)] | > 10000 nM | 
COc1cc([N+](=O)[O-])c(OC)cc1CCNCc1ccccc1[N+](=O)[O-] [25N-NBNO2 (15), [2-(2,5-dimethoxy-4-nitrophenyl)ethyl][(2-nitrophenyl)methyl]amine] | > 10000 nM | 
COc1cc([N+](=O)[O-])c(OC)cc1CCNCc1ccccc1OC(F)(F)F [25N-NBOCF3 (12)] |  | 5.80
COc1cc([N+](=O)[O-])c(OC)cc1CCNCc1ccccc1OC [25N-NBOMe (4), [2-(2,5-dimethoxy-4-nitrophenyl)ethyl] [(2-methoxyphenyl)methyl]amine] | > 10000 nM | 

Target: 5-HT6 (Homo sapiens, UniProt P50406)
Sequence (P50406 whole entry, species assumed): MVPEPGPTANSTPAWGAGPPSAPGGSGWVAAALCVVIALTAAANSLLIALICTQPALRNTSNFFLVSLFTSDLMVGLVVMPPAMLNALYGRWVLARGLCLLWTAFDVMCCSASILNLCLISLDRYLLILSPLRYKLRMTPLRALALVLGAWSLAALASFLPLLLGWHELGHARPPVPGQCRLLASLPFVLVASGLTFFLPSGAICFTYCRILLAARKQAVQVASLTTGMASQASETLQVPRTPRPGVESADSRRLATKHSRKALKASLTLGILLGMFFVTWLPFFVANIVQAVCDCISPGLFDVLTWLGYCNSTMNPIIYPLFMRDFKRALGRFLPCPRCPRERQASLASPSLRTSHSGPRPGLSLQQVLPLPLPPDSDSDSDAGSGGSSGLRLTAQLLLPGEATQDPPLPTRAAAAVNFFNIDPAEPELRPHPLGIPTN
Assay: Competitive radioligand binding (NIMH PDSP)
Conditions: not given

Compound | Ki | 5-HT6 pKi affinity (Ki ± SEM)
COc1cc([N+](=O)[O-])c(OC)cc1CCNCc1ccccc1I [25N-NBI (10)] | 380 nM | 
COc1cc([N+](=O)[O-])c(OC)cc1CCNCc1ccccc1[N+](=O)[O-] [25N-NBNO2 (15), [2-(2,5-dimethoxy-4-nitrophenyl)ethyl][(2-nitrophenyl)methyl]amine] | > 10000 nM | 
COc1cc([N+](=O)[O-])c(OC)cc1CCNCc1ccccc1OC(F)(F)F [25N-NBOCF3 (12)] |  | 6.12
COc1cc([N+](=O)[O-])c(OC)cc1CCNCc1ccccc1OC [25N-NBOMe (4), [2-(2,5-dimethoxy-4-nitrophenyl)ethyl] [(2-methoxyphenyl)methyl]amine] | 55 nM | 

Target: 5-HT7 (Homo sapiens, UniProt P34969)
Sequence (P34969 whole entry, species assumed): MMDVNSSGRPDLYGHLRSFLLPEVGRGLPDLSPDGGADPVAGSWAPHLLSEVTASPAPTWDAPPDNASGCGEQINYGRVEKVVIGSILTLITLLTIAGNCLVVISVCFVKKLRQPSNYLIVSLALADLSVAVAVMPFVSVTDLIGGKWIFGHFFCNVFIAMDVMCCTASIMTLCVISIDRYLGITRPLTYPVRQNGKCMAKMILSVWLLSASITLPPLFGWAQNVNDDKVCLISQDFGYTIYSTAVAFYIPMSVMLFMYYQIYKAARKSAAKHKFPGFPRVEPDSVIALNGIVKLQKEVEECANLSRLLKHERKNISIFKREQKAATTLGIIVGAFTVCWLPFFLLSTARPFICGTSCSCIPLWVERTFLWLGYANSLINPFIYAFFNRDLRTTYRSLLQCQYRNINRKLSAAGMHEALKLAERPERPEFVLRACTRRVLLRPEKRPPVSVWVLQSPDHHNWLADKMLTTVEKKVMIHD
Assay: Competitive radioligand binding (NIMH PDSP)
Conditions: not given

Compound | Ki | 5-HT7 pKi affinity (Ki ± SEM)
COc1cc([N+](=O)[O-])c(OC)cc1CCNCc1ccccc1I [25N-NBI (10)] | > 10000 nM | 
COc1cc([N+](=O)[O-])c(OC)cc1CCNCc1ccccc1[N+](=O)[O-] [25N-NBNO2 (15), [2-(2,5-dimethoxy-4-nitrophenyl)ethyl][(2-nitrophenyl)methyl]amine] | > 10000 nM | 
COc1cc([N+](=O)[O-])c(OC)cc1CCNCc1ccccc1OC(F)(F)F [25N-NBOCF3 (12)] |  | <5
COc1cc([N+](=O)[O-])c(OC)cc1CCNCc1ccccc1OC [25N-NBOMe (4), [2-(2,5-dimethoxy-4-nitrophenyl)ethyl] [(2-methoxyphenyl)methyl]amine] | > 10000 nM | 

Tested on: male C57BL/6J mice
Assay: Head-twitch response (HTR) in mice
Format: in vivo, mouse
Conditions: not given
Outline: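 Head twitches in male C57BL/6J mice (6-8 weeks) carrying head-mounted magnets were detected with a magnetometer coil around a 12-cm glass cylinder during the dark phase. Coil signal was low-pass filtered at 2 kHz and digitized at 20 kHz. Counts were analyzed by one-way ANOVA with Dunnett's post hoc test.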

Compound | Max HTR response during a 30-min assessment (maximum counts ÷ baseline response) | Induction of the HTR in mice (in words)
COc1cc([N+](=O)[O-])c(OC)cc1CCNCc1ccccc1 [25N-NB (2), Benzyl[2-(2,5-dimethoxy-4-nitrophenyl)ethyl]amine] | 9.1-fold increase | 
COc1cc([N+](=O)[O-])c(OC)cc1CCNCc1ccccc1I [25N-NBI (10)] | 3.0-fold increase | 
COc1cc([N+](=O)[O-])c(OC)cc1CCNCc1ccccc1[N+](=O)[O-] [25N-NBNO2 (15), [2-(2,5-dimethoxy-4-nitrophenyl)ethyl][(2-nitrophenyl)methyl]amine] | 1.9-fold increase | lacked a HTR; also recorded: failed to induce a HTR; also recorded: do not induce the HTR
COc1cc([N+](=O)[O-])c(OC)cc1CCNCc1ccccc1OC(F)(F)F [25N-NBOCF3 (12)] | 3.9-fold increase | do not induce the HTR
COc1cc([N+](=O)[O-])c(OC)cc1CCNCc1ccccc1OC [25N-NBOMe (4), [2-(2,5-dimethoxy-4-nitrophenyl)ethyl] [(2-methoxyphenyl)methyl]amine] | 15.6-fold increase | 
COc1cc([N+](=O)[O-])c(OC)cc1CCNCc1ccccc1-c1ccccc1 [25N-NBPh (17), ({[1,1′-biphenyl]-2-yl}methyl)[2-(2,5-dimethoxy-4-nitrophenyl)ethyl]amine] | 2.1-fold increase | lacked a HTR

Same assay, conditions: Mus musculus, read-out: HTR ED50 μmol/kg (95% CI), SC, except DOI and 25D-NBOMe IP

Compound | ED50
COc1cc([N+](=O)[O-])c(OC)cc1CCNCc1ccccc1 [25N-NB (2), Benzyl[2-(2,5-dimethoxy-4-nitrophenyl)ethyl]amine] | 3.53 µmol/kg
COc1cc([N+](=O)[O-])c(OC)cc1CCNCc1ccccc1I [25N-NBI (10)] | 10.3 µmol/kg
COc1cc([N+](=O)[O-])c(OC)cc1CCNCc1ccccc1OC [25N-NBOMe (4), [2-(2,5-dimethoxy-4-nitrophenyl)ethyl] [(2-methoxyphenyl)methyl]amine] | 0.29 µmol/kg

Same assay, conditions: Mus musculus, read-out: HTR ED50 mg/kg (95% CI), SC, except DOI and 25D-NBOMe IP

Compound | ED50
COc1cc([N+](=O)[O-])c(OC)cc1CCNCc1ccccc1 [25N-NB (2), Benzyl[2-(2,5-dimethoxy-4-nitrophenyl)ethyl]amine] | 1.25 mg/kg
COc1cc([N+](=O)[O-])c(OC)cc1CCNCc1ccccc1I [25N-NBI (10)] | 4.94 mg/kg
COc1cc([N+](=O)[O-])c(OC)cc1CCNCc1ccccc1[N+](=O)[O-] [25N-NBNO2 (15), [2-(2,5-dimethoxy-4-nitrophenyl)ethyl][(2-nitrophenyl)methyl]amine] | > 100 mg/kg
COc1cc([N+](=O)[O-])c(OC)cc1CCNCc1ccccc1OC [25N-NBOMe (4), [2-(2,5-dimethoxy-4-nitrophenyl)ethyl] [(2-methoxyphenyl)methyl]amine] | 0.11 mg/kg
COc1cc([N+](=O)[O-])c(OC)cc1CCNCc1ccccc1-c1ccccc1 [25N-NBPh (17), ({[1,1′-biphenyl]-2-yl}methyl)[2-(2,5-dimethoxy-4-nitrophenyl)ethyl]amine] | > 100 mg/kg

Same assay, conditions: SC, except DOI and 25D-NBOMe IP

Compound | HTR ED50 μmol/kg (95% CI) | HTR ED50 mg/kg (95% CI)
COc1cc([N+](=O)[O-])c(OC)cc1CCNCc1ccccc1OC(F)(F)F [25N-NBOCF3 (12)] | 13.5 (6.81-26.8) μmol/kg | 5.90 (2.97-11.7) mg/kg

Target: 5-HT2A (Homo sapiens, UniProt P28223)
Sequence (P28223 whole entry): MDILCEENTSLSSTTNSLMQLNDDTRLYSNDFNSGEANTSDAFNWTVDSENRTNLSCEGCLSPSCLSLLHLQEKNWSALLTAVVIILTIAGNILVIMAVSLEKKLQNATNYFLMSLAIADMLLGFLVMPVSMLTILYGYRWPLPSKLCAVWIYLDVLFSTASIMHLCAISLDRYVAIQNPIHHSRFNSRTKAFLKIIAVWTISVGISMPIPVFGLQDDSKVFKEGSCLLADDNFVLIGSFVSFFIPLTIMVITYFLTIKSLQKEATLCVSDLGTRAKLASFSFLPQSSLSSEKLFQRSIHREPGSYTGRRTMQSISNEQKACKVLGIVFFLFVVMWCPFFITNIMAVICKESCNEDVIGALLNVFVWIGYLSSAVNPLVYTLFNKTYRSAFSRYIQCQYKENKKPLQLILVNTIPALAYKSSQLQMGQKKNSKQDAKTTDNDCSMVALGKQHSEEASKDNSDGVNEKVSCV
Assay: cell-based
Parameters: expressed in transfected cells; host or cells: HEK293T, transient
Conditions: read-out: 5-HT2A β-arrestin Emax (% 5-HT), BRET, mean ± SEM

Compound | Emax
COc1cc([N+](=O)[O-])c(OC)cc1CCNCc1ccccc1 [25N-NB (2), Benzyl[2-(2,5-dimethoxy-4-nitrophenyl)ethyl]amine] | 115 ± 4.1%
COc1cc([N+](=O)[O-])c(OC)cc1CCNCc1cccc(C)c1 [25N-NB-3-Me (22), [2-(2,5-dimethoxy-4-nitrophenyl)ethyl][(3-methylphenyl)methyl]amine] | 94.7 ± 4.2%
COc1cc([N+](=O)[O-])c(OC)cc1CCNCc1ccccc1OC [25N-NBOMe (4), [2-(2,5-dimethoxy-4-nitrophenyl)ethyl] [(2-methoxyphenyl)methyl]amine] | 136 ± 3.8%
COc1cc([N+](=O)[O-])c(OC)cc1CCNCc1ccccc1-c1ccccc1 [25N-NBPh (17), ({[1,1′-biphenyl]-2-yl}methyl)[2-(2,5-dimethoxy-4-nitrophenyl)ethyl]amine] | 109 ± 2.8%

Target: 5-HT2B (Homo sapiens, UniProt P41595)
Sequence (P41595 whole entry): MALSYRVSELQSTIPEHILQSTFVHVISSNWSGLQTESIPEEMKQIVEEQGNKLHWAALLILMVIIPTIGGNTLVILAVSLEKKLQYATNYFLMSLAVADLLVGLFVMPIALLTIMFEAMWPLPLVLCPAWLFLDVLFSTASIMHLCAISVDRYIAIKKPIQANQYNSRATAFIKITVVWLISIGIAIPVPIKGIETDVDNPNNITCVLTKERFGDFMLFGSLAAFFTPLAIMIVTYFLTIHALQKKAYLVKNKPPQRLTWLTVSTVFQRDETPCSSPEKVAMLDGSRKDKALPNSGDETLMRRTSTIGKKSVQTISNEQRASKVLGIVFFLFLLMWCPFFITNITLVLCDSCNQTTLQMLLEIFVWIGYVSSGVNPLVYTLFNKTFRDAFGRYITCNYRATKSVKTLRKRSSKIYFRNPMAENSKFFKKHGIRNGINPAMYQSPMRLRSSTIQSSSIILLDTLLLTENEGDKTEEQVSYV
Assay: BRET Gq dissociation, 5-HT2B
Format: cell-based
Parameters: expressed in transfected cells; host or cells: HEK293T, transient
Conditions: not given

Compound | EC50 | 5-HT2B Gq Dissociation (BRET) EMAX ± SEM (%5-HT) | 5-HT2B Gq Dissociation (BRET) pEC50 ± SEM
COc1cc([N+](=O)[O-])c(OC)cc1CCNCc1ccccc1 [25N-NB (2), Benzyl[2-(2,5-dimethoxy-4-nitrophenyl)ethyl]amine] | 38 nM |  | 
COc1cc([N+](=O)[O-])c(OC)cc1CCNCc1ccccc1I [25N-NBI (10)] | 29.5 nM |  | 
COc1cc([N+](=O)[O-])c(OC)cc1CCNCc1ccccc1[N+](=O)[O-] [25N-NBNO2 (15), [2-(2,5-dimethoxy-4-nitrophenyl)ethyl][(2-nitrophenyl)methyl]amine] |  | No activity | No activity
COc1cc([N+](=O)[O-])c(OC)cc1CCNCc1ccccc1OC [25N-NBOMe (4), [2-(2,5-dimethoxy-4-nitrophenyl)ethyl] [(2-methoxyphenyl)methyl]amine] | 3.89 nM |  | 
COc1cc([N+](=O)[O-])c(OC)cc1CCNCc1ccccc1-c1ccccc1 [25N-NBPh (17), ({[1,1′-biphenyl]-2-yl}methyl)[2-(2,5-dimethoxy-4-nitrophenyl)ethyl]amine] | 316 nM |  | 

Same assay, conditions: read-out: 5-HT2B Gq Dissociation (BRET) EMAX ± SEM (%5-HT)

Compound | Emax
COc1cc([N+](=O)[O-])c(OC)cc1CCNCc1ccccc1 [25N-NB (2), Benzyl[2-(2,5-dimethoxy-4-nitrophenyl)ethyl]amine] | 32.6 ± 2.3%
COc1cc([N+](=O)[O-])c(OC)cc1CCNCc1ccccc1I [25N-NBI (10)] | 21.8 ± 2.3%
COc1cc([N+](=O)[O-])c(OC)cc1CCNCc1ccccc1OC [25N-NBOMe (4), [2-(2,5-dimethoxy-4-nitrophenyl)ethyl] [(2-methoxyphenyl)methyl]amine] | 61.8 ± 2.3%
COc1cc([N+](=O)[O-])c(OC)cc1CCNCc1ccccc1-c1ccccc1 [25N-NBPh (17), ({[1,1′-biphenyl]-2-yl}methyl)[2-(2,5-dimethoxy-4-nitrophenyl)ethyl]amine] | 47 ± 5.5%

Target: T1, 5-HT2C (Homo sapiens, UniProt P28335)
T1 sequence (P28335 33-458): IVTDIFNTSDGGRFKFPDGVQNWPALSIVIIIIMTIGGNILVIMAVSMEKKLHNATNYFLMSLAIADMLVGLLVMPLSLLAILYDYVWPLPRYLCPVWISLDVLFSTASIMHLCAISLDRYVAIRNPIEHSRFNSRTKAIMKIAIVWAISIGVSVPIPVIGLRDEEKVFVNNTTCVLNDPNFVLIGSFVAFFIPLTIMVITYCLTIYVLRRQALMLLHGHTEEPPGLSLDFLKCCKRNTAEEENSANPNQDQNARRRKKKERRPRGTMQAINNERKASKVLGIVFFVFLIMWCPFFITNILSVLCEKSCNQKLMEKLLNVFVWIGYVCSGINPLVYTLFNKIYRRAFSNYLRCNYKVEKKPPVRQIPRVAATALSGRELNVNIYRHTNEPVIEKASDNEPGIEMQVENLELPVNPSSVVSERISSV
Assay: BRET Gq dissociation, 5-HT2C
Format: cell-based
Parameters: expressed in transfected cells; host or cells: HEK293T, transient
Conditions: not given

Compound | EC50
COc1cc([N+](=O)[O-])c(OC)cc1CCNCc1ccccc1 [25N-NB (2), Benzyl[2-(2,5-dimethoxy-4-nitrophenyl)ethyl]amine] | 8.51 nM
COc1cc([N+](=O)[O-])c(OC)cc1CCNCc1ccccc1I [25N-NBI (10)] | 87.1 nM
COc1cc([N+](=O)[O-])c(OC)cc1CCNCc1ccccc1[N+](=O)[O-] [25N-NBNO2 (15), [2-(2,5-dimethoxy-4-nitrophenyl)ethyl][(2-nitrophenyl)methyl]amine] | 148 nM
COc1cc([N+](=O)[O-])c(OC)cc1CCNCc1ccccc1OC [25N-NBOMe (4), [2-(2,5-dimethoxy-4-nitrophenyl)ethyl] [(2-methoxyphenyl)methyl]amine] | 0.302 nM
COc1cc([N+](=O)[O-])c(OC)cc1CCNCc1ccccc1-c1ccccc1 [25N-NBPh (17), ({[1,1′-biphenyl]-2-yl}methyl)[2-(2,5-dimethoxy-4-nitrophenyl)ethyl]amine] | 646 nM

Same assay, conditions: read-out: 5-HT2C Gq Dissociation (BRET) EMAX ± SEM (%5-HT)

Compound | Emax
COc1cc([N+](=O)[O-])c(OC)cc1CCNCc1ccccc1 [25N-NB (2), Benzyl[2-(2,5-dimethoxy-4-nitrophenyl)ethyl]amine] | 89.4 ± 2.3%
COc1cc([N+](=O)[O-])c(OC)cc1CCNCc1ccccc1I [25N-NBI (10)] | 71.5 ± 2.2%
COc1cc([N+](=O)[O-])c(OC)cc1CCNCc1ccccc1[N+](=O)[O-] [25N-NBNO2 (15), [2-(2,5-dimethoxy-4-nitrophenyl)ethyl][(2-nitrophenyl)methyl]amine] | 61.3 ± 4.4%
COc1cc([N+](=O)[O-])c(OC)cc1CCNCc1ccccc1OC [25N-NBOMe (4), [2-(2,5-dimethoxy-4-nitrophenyl)ethyl] [(2-methoxyphenyl)methyl]amine] | 112 ± 2.8%
COc1cc([N+](=O)[O-])c(OC)cc1CCNCc1ccccc1-c1ccccc1 [25N-NBPh (17), ({[1,1′-biphenyl]-2-yl}methyl)[2-(2,5-dimethoxy-4-nitrophenyl)ethyl]amine] | 96.9 ± 10%
